In article PMC7432838, “A Curcumin Analog Exhibits Multiple Biologic Effects on the Pathogenesis of Alzheimer’s Disease and Improves Behavior, Inflammation, and β-Amyloid Accumulation in a Mouse Model” (International Journal of Molecular Sciences, 2020):
“And” between values parts separate entries of the source, which are not always exact repeats. Identical values can stand only once.

Columns and labels:
rat = assay: Preliminary toxicological experiments in the rat model; format: in vivo; details: preliminary data
[1] = Pharmacokinetic study after oral administration in SD rats; format: in vivo, rat; details: male, Sprague-Dawley, rat, in vivo, po, 150 mg/kg
Experimental: In order to evaluate the bioavailability of curcumin and its analog TML-6, pharmacokinetic studies were commissioned and conducted by the Development Center for Biotechnology (DCB, Taipei, Taiwan). The kinetics of curcumin and TML-6 in blood were collected at 0.25, 0.5, 1, 2, 4, 6, 8 and 10 h after oral administration of curcumin and TML-6 at the dose of 150 mg/kg in male Sprague–Dawley Rats.

[2] = tested on: Aβ in 3xTg AD mouse brain; assay: Immunofluorescence staining of Aβ in brain of 3xTg AD mice; format: in vivo; details: 150 mg/kg/day in diet for four months
Experimental: (§1) The triplex transgenic mouse model (3xTg-AD, APP Swedish, MAPT P301L, and PSEN1 M146V) was adopted as the AD model and bred at the laboratory animal center of National Cheng Kung University (NCKU), Tainan, Taiwan. The mice were housed in a room maintained on a 12 h light–dark cycle and fed ad libitum. Six-month old 3xTg-AD mice were used for animal experiments. Experimental procedures for handling the mice were in accordance with the guidelines of the Institutional Animal Care and Use Committee (IACUC) of NCKU. These mice develop plaques and tangles pathology. Aβ deposition is progressive, and deposition appears as early as nine months for triplex-Tg mice. […] The quantity of the diet consumed by the mice was determined daily. The concentration of curcumin and TML-6 in the diet was determined to be around 1.20 mg/g of diet after assaying by HPLC by the Development Center for the Biotechnology (DCB), Taipei, Taiwan.
(§2) Mice were anesthetized using pentobarbital (60 mg/kg, intravenous) and then transcardial perfusion was performed with 0.01 M PBS (pH 7.4). […] Images were captured by the TissureFAXS microscopy system and positive signals were quantified by TissueQuest software module (TissueGnostic, Vienne, Austria).

[3] = tested on: Aβ40 production in N2a/APPswe stable cells; assay: Aβ40 ELISA of culture medium; format: cell-based, mouse; details: 3.14 µg/mL, 24 h, culture medium
Experimental: (§3) Extracellular levels of soluble Aβ40 and Aβ42 were determined by LEGEND MAX™ β-Amyloid x-40 and X-42 ELISA Kit (Biolegend, San Diego, CA, USA). Overexpression of the APP Swedish mutation (APPswe) in the N2a neuronblastoma cell line was called the N2a/APPswe cell line. N2a/APPswe stable cells were seeded at 8 × 10^5 cells in 6 cm dishes. After overnight incubation, the cells were treated with curcumin and TML-6 for 24 h. […] The culture supernatant was collected and centrifuged at 1500× g at 4 °C for 5 min to remove cells. The culture supernatants from various treatments were conducted to examine the Aβ levels according to the manufacturer’s instructions. The samples for the detection of soluble Aβ levels were diluted in the supernatant at a 1:10 dilution for this experiment. Levels of soluble Aβ were detected by measuring the OD at 620 nm (Molecular Devices, San Jose, CA, USA). The calculation of Aβ levels was based on the standard curves of Aβ40 and Aβ42, respectively.

[4] = tested on: Aβ42 production in N2a/APPswe stable cells; assay: Aβ42 ELISA of culture medium; format: cell-based, mouse; details: 3.14 µg/mL, 24 h, culture medium
Experimental: as §3

[5] = tested on: phospho-NF-κB in Huh-7 cells; assay: Western blotting of phosphorylated NF-κB; format: cell-based, human; details: 1.96 µg/mL, 24 h, vs medium control
Experimental: (§4) After cells were seeded and treated with curcumin and TML-6 for 24 h, cells were washed with ice-cold PBS (Phosphate Buffered Saline) and lysed with 100 μL of RIPA cell lysis buffer (Pierce Biotechnology, Rockford, IL, USA) supplemented with protease and phosphatase inhibitors (Roche Diagnostics, Mannheim, Germany). Cell lysates were further cleaned by centrifugation at 14,000 rpm at 4 °C for 15 min. Protein concentration was determined using a Bradford assay (Bio-Rad, Hercules, CA, USA). For Western blot analysis, 20 μg of each sample was prepared for SDS-PAGE (SDS Poly-acrylamide-gel-electrophoresis) and denatured at 95 ℃ for 10 min. The samples prepared from total lysates were loaded and separated by SDS-PAGE (8% or 10%), and then transferred to PVDF membranes (pore size 0.45 μm; PerkinElmer, Waltham, MA, USA) by semi-dry transfer cell (Bio-Rad). After blocking with 5% skim milk in PBS-T (0.1% Tween-20), the membranes were hybridized with primary antibodies at 1/1000 dilution at 4 °C overnight. On the next day, membranes were washed with PBS-T followed by incubation with HRP-conjugated anti-mouse or anti-rabbit secondary antibody (DAKO, Santa Clara, CA, USA) at 1/5000 dilution at room temperature for 1 h as appropriate. […]

3xTg AD transgenic mice = assay: Morris water maze test in 3xTg AD transgenic mice; format: in vivo, mouse; details: 150 mg/kg/day in diet for four months; six-month-old 3xTg AD mice; vs vehicle control
Experimental: The triplex transgenic mouse model (3xTg-AD, APP Swedish, MAPT P301L, and PSEN1 M146V) was adopted as the AD model and bred at the laboratory animal center of National Cheng Kung University (NCKU), Tainan, Taiwan. The mice were housed in a room maintained on a 12 h light–dark cycle and fed ad libitum. Six-month old 3xTg-AD mice were used for animal experiments. Experimental procedures for handling the mice were in accordance with the guidelines of the Institutional Animal Care and Use Committee (IACUC) of NCKU. These mice develop plaques and tangles pathology. Aβ deposition is progressive, and deposition appears as early as nine months for triplex-Tg mice. The AD transgenic mice were fed with the control diet (Laboratory Rodent Diet 5001, LabDiet, St. Louis, MO, USA), the control diet plus traditional curcumin (150 mg/kg), or the control diet plus TML-6 (150 mg/kg) for four months. Diets were stored at 4 °C and were added to mouse cage twice a week. The quantity of the diet consumed by the mice was determined daily. The concentration of curcumin and TML-6 in the diet was determined to be around 1.20 mg/g of diet after assaying by HPLC by the Development Center for the Biotechnology (DCB), Taipei, Taiwan.
For assessing spatial learning and memory, the Morris water maze was used as we described before. […] The time taken to reach the platform was recorded as escape latency.

[6] = Cytotoxicity assay by Cell Counting Kit-8 (CCK-8); format: cell-based, human; details: human, Huh-7 cells; Huh-7, 24 h
Experimental: (§5) The cytotoxicity assay was performed using the Cell Counting Kit-8 (CCK-8, Sigma). We dissolved 0.0524 g of TML-6 (molecular weight is 523.62 g/mol) in 10 mL DMSO to obtain TML-6 stock at 10 mM for cell line study. […] Briefly, Huh-7 cells were seeded overnight in 96-well plates at 5000 cells/well and then subjected to traditional curcumin or TML-6 treatment for 24 h. At each time point, a CCK-8 solution (0.25 mg/mL) was added to the medium in each well for an additional 4 h incubation, and absorbance was measured at 570 nm using an ELISA reader.

Huh-7 cells = assay: Cytotoxicity assay by Cell Counting Kit-8 (CCK-8); format: cell-based, human; details: Huh-7, 24 h, concentrations below 5 μM (2.61 µg/mL)
Experimental: as §5

[7] = tested on: phospho-mTOR in Huh-7 cells; assay: Western blotting of phospho-mTOR; format: cell-based, human
Experimental: After cells were seeded and treated with curcumin and TML-6 for 24 h, cells were washed with ice-cold PBS (Phosphate Buffered Saline) and lysed with 100 μL of RIPA cell lysis buffer (Pierce Biotechnology, Rockford, IL, USA) supplemented with protease and phosphatase inhibitors (Roche Diagnostics, Mannheim, Germany). Cell lysates were further cleaned by centrifugation at 14,000 rpm at 4 °C for 15 min. Protein concentration was determined using a Bradford assay (Bio-Rad, Hercules, CA, USA). For Western blot analysis, 20 μg of each sample was prepared for SDS-PAGE (SDS Poly-acrylamide-gel-electrophoresis) and denatured at 95 ℃ for 10 min. The samples prepared from total lysates were loaded and separated by SDS-PAGE (8% or 10%), and then transferred to PVDF membranes (pore size 0.45 μm; PerkinElmer, Waltham, MA, USA) by semi-dry transfer cell (Bio-Rad). After blocking with 5% skim milk in PBS-T (0.1% Tween-20), the membranes were hybridized with primary antibodies at 1/1000 dilution at 4 °C overnight. On the next day, membranes were washed with PBS-T followed by incubation with HRP-conjugated anti-mouse or anti-rabbit secondary antibody (DAKO, Santa Clara, CA, USA) at 1/5000 dilution at room temperature for 1 h as appropriate. Finally, the images were captured by Amersham Imager 600 (GE Healthcare Life Sciences, Marlborough, MA, USA) after being developed using the chemiluminescent HRP substrate (Millipore, Bedford, MA, USA). The primary antibodies used in this study were anti-APP, anti-NF-κB (Cell Signaling Technology, Danvers, MA, USA), anti-Apo E, anti-p-mTOR (Abcam, Cambridge, MA, USA).

[8] = tested on: Iba-1 (microglial activation marker) in 3xTg AD mouse hippocampus; assay: Immunofluorescence staining of Iba-1 in brain of 3xTg AD mice; format: in vivo; details: 150 mg/kg/day in diet for four months
Experimental: as §1, §2

[9] = Water solubility (preformulation, preliminary studies); format: physicochemical; details: water, unformulated
Experimental: The active pharmaceutical ingredients of TML-6 were synthesized and physico-chemical properties were characterized by SinoPharm Pharmaceutical Company (SPT), Tainan, Taiwan. Preformulation studies on the solubility of TML-6 were conducted by Value Pharmaceutical Services (VPS) Company, Jiansu, China. All the data in this study were conducted using unformulated TML-6. Formulation to optimize the solubility and permeability of TML-6 is under development for toxicological studies.

N2a/APPswe stable cells = assay: Cell viability/morphology by micrographs during Aβ ELISA treatment; format: cell-based, mouse; details: 24 h
Experimental: as §3

[10] = tested on: APP (amyloid precursor protein) in Huh-7 cells; assay: Western blotting of APP protein expression; format: cell-based, human; details: 1.96 µg/mL, 24 h, vs medium control
Experimental: as §4

[11] = Brain penetration study in normal mice after oral dosing; format: in vivo; details: oral dose of 150 mg/kg, normal mouse brain
Apo E in Huh-7 cells = assay: Western blotting of ApoE protein expression; format: cell-based, human; details: 2.62 µg/mL, 24 h, vs medium and curcumin control
Experimental: as §4

[12] = Brain penetration study in AD transgenic mice after oral dosing; format: in vivo, mouse; details: oral dose of 150 mg/kg
[13] = tested on: Nrf2 promoter in Huh-7 cells; assay: Nrf2 promoter Dual-Luciferase reporter assay; format: cell-based, human
Experimental: To examine the activities of the anti-oxidative gene NrF2, Huh-7 cells were seeded in 24-well culture plates and then co-transfected with serial dilution of pG5-Nrf2-Luc (firefly luciferase) with the pRL-TK Renilla luciferase reporter. Following overnight incubation, the transfected cells were treated with traditional curcumin and TML-6 compounds for additional 24 h. The luciferase reporter assay was performed using the Dual-Luciferase Reporter assay system (Promega, Madison, WI, USA). The cell lysates were assayed for both firefly and Renilla luciferase activities. The relative luciferase units (RLU) were measured using a luminometer (GLOMAX Multi, Promega). Firefly luciferase activity was normalized for transfection efficiency using the Renilla luciferase activity in each lysate as the control. The RLUs are expressed as means plus standard deviation of three independent experiments.

CCN(CC)C(=O)CC(C)(C(=O)/C=C/c1ccc(OC)c(OC)c1)C(=O)/C=C/c1ccc(OC)c(OC)c1 [TML-6]
toxicity in the rat model (in words) (rat): no obvious toxicity
Cmax [1]: 0.0359 ± 0.0156 µg/mL
MRT [1]: 3.91 ± 0.62 h
Tmax [1]: 3.67 ± 2.08 h
half-life [1]: 1.27 ± 0.51 h
AUC(0-t) ([1]; AUC(0-8)): 0.181 ± 0.0787 µg·h/mL
AUC(0-t) ([1]; AUC(0-last)): 0.177 ± 0.0768 µg·h/mL
reduction of Aβ expression in brain vs vehicle control [2]: 51%
Aβ40 level, reduced to % as compared with control group [3]: approximately 86%
Aβ42 level, reduced to % as compared with control group [4]: ~80%
decrease of phosphorylated NF-κB level [5]: about 50%
learning behavior in Morris water maze (in words) (3xTg AD transgenic mice): significantly improved hippocampus-dependent learning behavior
IC50 at 24 h [6]: 4.19 µg/mL and 8 µM
cytotoxicity (CCK-8) (Huh-7 cells): no cytotoxicity
phospho-mTOR suppression (Western blot, in words) ([7]; Huh-7, 24 h): suppressed in all the concentrations
potency of phospho-mTOR reduction relative to curcumin ([7]; TML-6 5.24 µg/mL gives same level as curcumin 20 µg/mL): about 4 fold
average reduction of phospho-mTOR ([7]; dose below IC50 (0.65~3.93 µg/mL), 24 h): about 30%
suppression of Iba-1 expression in hippocampus vs vehicle control [8]: 50%
solubility [9]: < 0.1 mg/mL
highest dose, at which cytotoxicity was seen (micrographs) (N2a/APPswe stable cells): 4.19 µg/mL
reduction of APP protein expression level [10]: 60%
detection in brain [11]: could not be detected
induction of ApoE protein expression level (Apo E in Huh-7 cells): approximately 44%
Kp ([12]; brain relative to plasma, AD transgenic mouse, read-out: brain level as % of the plasma pK levels): 0.1
level detected in brain ([12]; AD transgenic mouse brain, preliminary): 0.003 µg/mL
concentration of highest Nrf2 transcriptional activation ([13]; Huh-7, 24 h, luciferase reporter): 1.32 µg/mL
concentration beyond which cytotoxicity was found in Nrf2 promoter-transfected cells ([13]; Huh-7 transiently transfected with Nrf2 promoter): > 5.24 µg/mL
Nrf2 promoter activity, fold stronger than traditional curcumin at 10 µg/mL ([13]; TML-6 at 1.32 µg/mL vs curcumin 10 µg/mL, Huh-7, 24 h): 12.1 fold
Nrf2 promoter activity, fold stronger than traditional curcumin at 20 µg/mL ([13]; TML-6 at 1.32 µg/mL vs curcumin 20 µg/mL, Huh-7, 24 h): 6.6 fold
